Literature values in US20130204238A1, “COMBINATION THERAPY” (FOLLICA, INC, priority 2010, published 2013).

Target: GSK3β (Homo sapiens, UniProt P49841)
Settings: compared with other indirubin derivatives

GSK3β, sequence (P49841 whole entry, species assumed): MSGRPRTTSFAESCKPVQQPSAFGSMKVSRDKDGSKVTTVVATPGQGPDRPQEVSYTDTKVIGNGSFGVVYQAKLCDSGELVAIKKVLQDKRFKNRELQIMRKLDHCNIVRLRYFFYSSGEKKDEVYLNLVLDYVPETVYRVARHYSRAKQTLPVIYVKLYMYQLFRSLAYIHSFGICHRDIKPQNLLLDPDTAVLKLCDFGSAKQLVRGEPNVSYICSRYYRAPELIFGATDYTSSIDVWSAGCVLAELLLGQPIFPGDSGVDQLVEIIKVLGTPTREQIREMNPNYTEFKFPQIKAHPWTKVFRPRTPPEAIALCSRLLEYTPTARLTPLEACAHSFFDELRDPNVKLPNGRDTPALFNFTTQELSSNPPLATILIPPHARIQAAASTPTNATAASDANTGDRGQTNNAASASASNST

Row | Molecule | pharmacological properties | toxicity
1 | O=C1Nc2ccc(Cl)cc2/C1=C1/Nc2ccccc2C1=O [5-chloroindirubin] | better pharmacological properties | reduced toxicity
2 | indirubin 3′-monoxime | better pharmacological properties | –
